US9738655B2, “Tetrahydroisoquinolines containing substituted azoles as factor XIa inhibitors” (BRISTOL-MYERS SQUIBB COMPANY, priority 2013, dated 2017)
Counter-ions that a name gives are not always drawn. Like-named read-outs stand apart in the source and are kept apart here.

Key:
[1] = biological target: purified human plasma kallikrein (Homo sapiens (Human), UniProt P03952); experiment: Plasma kallikrein enzyme inhibition assay (chromogenic substrate S-2302); assay type: biochemical
[2] = biological target: purified human Factor XIa (Homo sapiens (Human), UniProt P03951); experiment: Factor XIa enzyme inhibition assay (chromogenic substrate S-2366)
Chain of purified human Factor XIa (P03951 388-625): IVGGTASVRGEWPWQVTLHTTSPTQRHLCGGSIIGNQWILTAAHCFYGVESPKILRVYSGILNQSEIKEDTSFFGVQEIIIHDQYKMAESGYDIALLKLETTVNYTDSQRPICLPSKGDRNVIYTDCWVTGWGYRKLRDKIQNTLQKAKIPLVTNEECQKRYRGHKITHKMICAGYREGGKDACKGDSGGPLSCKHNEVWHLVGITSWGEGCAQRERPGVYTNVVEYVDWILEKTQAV
Chain of purified human Factor XIa (P03951 19-387 partner): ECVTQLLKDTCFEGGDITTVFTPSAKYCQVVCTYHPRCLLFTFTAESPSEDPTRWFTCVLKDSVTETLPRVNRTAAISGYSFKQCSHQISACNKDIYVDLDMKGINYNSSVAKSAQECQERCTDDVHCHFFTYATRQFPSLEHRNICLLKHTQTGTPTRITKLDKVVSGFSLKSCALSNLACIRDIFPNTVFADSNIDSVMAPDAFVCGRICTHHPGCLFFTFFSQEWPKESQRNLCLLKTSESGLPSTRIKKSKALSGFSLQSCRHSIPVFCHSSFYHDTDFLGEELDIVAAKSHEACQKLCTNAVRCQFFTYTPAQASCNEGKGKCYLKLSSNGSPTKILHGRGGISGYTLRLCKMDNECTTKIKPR
Procedure: The effectiveness of compounds of the present invention as inhibitors of the coagulation Factors XIa, VIIa, IXa, Xa, XIIa, plasma kallikrein or thrombin, can be determined using a relevant purified serine protease, respectively, and an appropriate synthetic substrate. The rate of hydrolysis of the chromogenic or fluorogenic substrate by the relevant serine protease was measured both in the absence and presence of compounds of the present invention. […] A decrease in the rate of absorbance or fluorescence change in the presence of inhibitor is indicative of enzyme inhibition. […] The results of this assay are expressed as the inhibitory constant, Ki.
Values of Ki were determined by allowing the protease to react with the substrate in the presence of the inhibitor.

[3] = measured at 25° C. (no asterisk)
[4] = read-out: Factor XIa Ki, measured at 25° C.
[5] = measured at 25° C. (no asterisk), TFA salt
[6] = read-out: Factor XIa Ki, measured at 25° C., TFA salt

Chain of purified human plasma kallikrein (P03952 391-638): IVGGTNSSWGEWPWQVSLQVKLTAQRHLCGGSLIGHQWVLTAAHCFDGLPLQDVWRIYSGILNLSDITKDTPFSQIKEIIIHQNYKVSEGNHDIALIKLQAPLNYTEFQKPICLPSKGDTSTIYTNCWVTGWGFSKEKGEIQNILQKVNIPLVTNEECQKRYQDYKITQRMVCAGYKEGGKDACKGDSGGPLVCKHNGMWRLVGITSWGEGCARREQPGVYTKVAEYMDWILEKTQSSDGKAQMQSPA
Chain of purified human plasma kallikrein (P03952 20-390 partner): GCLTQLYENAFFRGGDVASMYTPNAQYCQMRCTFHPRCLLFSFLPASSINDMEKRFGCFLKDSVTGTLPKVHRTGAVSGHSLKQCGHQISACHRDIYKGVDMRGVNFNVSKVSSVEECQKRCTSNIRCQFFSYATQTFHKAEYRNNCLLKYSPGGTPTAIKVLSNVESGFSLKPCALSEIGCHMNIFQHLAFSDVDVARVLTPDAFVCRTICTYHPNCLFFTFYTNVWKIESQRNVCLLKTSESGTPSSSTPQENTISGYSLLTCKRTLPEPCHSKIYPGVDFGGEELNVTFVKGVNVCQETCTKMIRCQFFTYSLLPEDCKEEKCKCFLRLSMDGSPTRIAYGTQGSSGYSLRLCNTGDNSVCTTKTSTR

**Q.** Which results are given for `COC1CCN(c2cccc3c2CCN(C(=O)c2cn(-c4cccc(Cl)c4F)cn2)[C@@H]3C(=O)Nc2ccc(C(=O)O)cc2)CC1` [Example 273, (S)-4-(2-(1-(3-chloro-2-fluorophenyl)-1H-imidazole-4-carbonyl)-5-(4-methoxypiperidin-1-yl)-1,2,3,4-tetrahydroisoquinoline-1-carboxamide)benzoic acid, TFA salt]?
**A.** Ki [1, 3]: 7.65 nM; Ki [2, 4]: < 5 nM

**Q.** `COC1CCN(c2cccc3c2CCN(C(=O)c2cnn(-c4cccc(Cl)c4F)c2N)[C@@H]3C(=O)Nc2ccc(C(=O)O)cc2)CC1` [Example 285, (S)-4-(2-(5-amino-1-(3-chloro-2-fluorophenyl)-1H-pyrazole-4-carbonyl)-5-(4-methoxypiperidin-1-yl)-1,2,3,4-tetrahydroisoquinoline-1-carboxamido)benzoic acid, TFA salt] was tested. Which Ki [1, 3] did it give?
**A.** 19.8 nM

**Q.** And the Ki [2, 4]?
**A.** < 5 nM

**Q.** `COC1CCN(c2cccc3c2CCN(C(=O)c2cnn(-c4cccc(Cl)c4F)c2N)[C@H]3C(=O)Nc2ccc(C(=O)O)cc2)CC1` [Example 286, (R)-4-(2-(5-amino-1-(3-chloro-2-fluorophenyl)-1H-pyrazole-4-carbonyl)-5-(4-methoxypiperidin-1-yl)-1,2,3,4-tetrahydroisoquinoline-1-carboxamido)benzoic acid, TFA salt] was tested. Which Ki [1, 3] did it give?
**A.** 3290 nM

**Q.** What about the Ki [2, 4] of the same compound?
**A.** 266 nM

**Q.** `CN1CCN(c2cccc3c2CCN(C(=O)c2cn(-c4cccc(Cl)c4F)nn2)[C@@H]3C(=O)Nc2ccc(C(=O)O)cc2)CC1=O` [Example 287, (S)-4-(2-(1-(3-chloro-2-fluorophenyl)-1H-1,2,3-triazole-4-carbonyl)-5-(4-methyl-3-oxopiperizin-1-yl)-1,2,3,4-tetrahydroisoquinoline-1-carboxamido)benzoic acid, TFA salt] was tested. Which Ki [1, 3] did it give?
**A.** 1.82 nM

**Q.** What about the Ki [2, 4] of the same compound?
**A.** < 5 nM

**Q.** How did the Ki [1, 3] turn out when `CN1CCN(c2cccc3c2CCN(C(=O)c2cn(-c4cccc(Cl)c4F)nn2)[C@H]3C(=O)Nc2ccc(C(=O)O)cc2)CC1=O` [Example 288, (R)-4-(2-(1-(3-chloro-2-fluorophenyl)-1H-1,2,3-triazole-4-carbonyl)-5-(4-methyl-3-oxopiperazin-1-yl)-1,2,3,4-tetrahydroisoquinoline-1-carboxamido)benzoic acid, TFA salt] was run?
**A.** 824 nM

**Q.** And the Ki [2, 4]?
**A.** 155 nM

**Q.** How did the Ki [1, 5] turn out when `COC1CCN(c2cccc3c2CCN(C(=O)C2CC(c4c(C(F)(F)F)ccc(Cl)c4F)=NO2)C3C(=O)Nc2ccc(C(=O)O)cc2)CC1` (stereo not shown) [Example 297, 4-(2-(3-(3-chloro-2-fluoro-6-(trifluoromethyl)phenyl)-4,5-dihydroisoxazole-5-carbonyl)-5-(4-methoxypiperidin-1-yl)-1,2,3,4-tetrahydroisoquinoline-1-carboxamido)benzoic acid, TFA salt] was run?
**A.** 1280 nM

**Q.** And the Ki [2, 6]?
**A.** 46.3 nM

**Q.** What does the source list for `COC1CCN(c2cccc3c2CCN(C(=O)C2CC(c4c(C(F)(F)F)ccc(Cl)c4F)=NO2)C3C(=O)Nc2ccc(C(=O)O)cc2)CC1` (stereo not shown) [Example 298, 4-(2-(3-(3-chloro-2-fluoro-6-(trifluoromethyl)phenyl)-4,5-dihydroisoxazole-5-carbonyl)-5-(4-methoxypiperidin-1-yl)-1,2,3,4-tetrahydroisoquinoline-1-carboxamido)benzoic acid, TFA salt]?
**A.** Ki [1, 5]: 1010 nM; Ki [2, 6]: 64.8 nM

**Q.** Which Ki [1, 3] does the source give for `CO[C@@H]1CCN(c2cccc3c2CCN(C(=O)[C@H]2CC(c4cccc(Cl)c4F)=NO2)[C@H]3C(=O)Nc2ccc(C(=O)O)cc2)C1` [Example 299, 4-((R)-2-((R)-3-(3-chloro-2-fluorophenyl)-4,5-dihydroisoxazole-5-carbonyl)-5-((R)-3-methoxypyrrolidin-1-yl)-1,2,3,4-tetrahydroisoquinoline-1-carboxamido)benzoic acid, TFA salt] here?
**A.** 316 nM

**Q.** And the Ki [2, 4]?
**A.** 62.7 nM

**Q.** `CO[C@@H]1CCN(c2cccc3c2CCN(C(=O)[C@H]2CC(c4cccc(Cl)c4F)=NO2)[C@@H]3C(=O)Nc2ccc(C(=O)O)cc2)C1` [Example 300, 4-((S)-2-((R)-3-(3-chloro-2-fluorophenyl)-4,5-dihydroisoxazole-5-carbonyl)-5-((R)-3-methoxypyrrolidin-1-yl)-1,2,3,4-tetrahydroisoquinoline-1-carboxamido)benzoic acid, TFA salt] was tested. Which Ki [1, 3] did it give?
**A.** 4.15 nM

**Q.** And the Ki [2, 4]?
**A.** < 5 nM

**Q.** For `COC1CCN(c2cccc3c2CCN(C(=O)C2CCN(c4cccc(Cl)c4F)C2)C3C(=O)Nc2ccc(C(=O)O)cc2)CC1` (stereo not shown) [Example 307, 4-(2-(1-(3-Chloro-2-fluorophenyl)pyrrolidine-3-carbonyl) 5-(4-methoxypiperidin-1-yl)-1,2,3,4-tetrahydroisoquinoline-1-carboxamido)benzoic acid, TFA salt], which Ki [1, 5] is on record?
**A.** 593 nM

**Q.** And the Ki [2, 6]?
**A.** 165 nM

**Q.** What does the source list for `COC1CCN(c2cccc3c2CCN(C(=O)C2CCN(c4cccc(Cl)c4F)C2)C3C(=O)Nc2ccc(C(=O)O)cc2)CC1` (stereo not shown) [Example 308, 4-(2-(1-(3-Chloro-2-fluorophenyl)pyrrolidine-3-carbonyl)-5-(4-methoxypiperidin-1-yl)-1,2,3,4-tetrahydroisoquinoline-1-carboxamido)benzoic acid, TFA salt]?
**A.** Ki [1, 5]: 79.7 nM; Ki [2, 6]: 6.03 nM

**Q.** What does the source list for `COC1CCN(c2cccc3c2CCN(C(=O)c2cn(-c4cccc(Cl)c4F)nn2)[C@@H]3C(=O)Nc2ccc(C(=O)O)cc2)CC1` [Example 314, (S)-4-(2-(1-(3-chloro-2-fluorophenyl)-1H-1,2,3-triazole-4-carbonyl)-5-(4-methoxypiperidin-1-yl)-1,2,3,4-tetrahydroisoquinoline-1-carboxamido)benzoic acid, TFA salt]?
**A.** Ki [1, 3]: 10.3 nM; Ki [2, 4]: < 5 nM

**Q.** With `COC1CCN(c2cccc3c2CCN(C(=O)c2cnn(-c4cccc(Cl)c4F)c2)[C@@H]3C(=O)Nc2ccc(C(=O)O)cc2)CC1` [Example 315, (S)-4-(2-(1-(3-chloro-2-fluorophenyl)-1H-pyrazole-4-carbonyl)-5-(4-methoxypiperidin-1-yl)-1,2,3,4-tetrahydroisoquinoline-1-carboxamido)benzoic acid, TFA salt] as the compound, how does the Ki [1, 3] read?
**A.** 19.6 nM

**Q.** And the Ki [2, 4]?
**A.** < 5 nM

**Q.** How did the Ki [1, 3] turn out when `COC1CCN(c2cccc3c2CCN(C(=O)c2cnn(-c4cccc(Cl)c4F)c2)[C@H]3C(=O)Nc2ccc(C(=O)O)cc2)CC1` [Example 316, (R)-4-(2-(1-(3-chloro-2-fluorophenyl)-1H-pyrazole-4-carbonyl)-5-(4-methoxypiperidin-1-yl)-1,2,3,4-tetrahydroisoquinoline-1-carboxamido)benzoic acid, TFA salt] was run?
**A.** 578 nM

**Q.** What about the Ki [2] of the same compound?
**A.** 42.9 nM

**Q.** What does the source list for `CN(C)C(=O)C1CCN(c2cccc3c2CCN(C(=O)c2cnn(-c4cccc(Cl)c4F)c2N)C3C(=O)Nc2ccc(C(=O)O)cc2)CC1` (stereo not shown) [Example 317, 4-(2-(5-Amino-1-(3-chloro-2-fluorophenyl)-1H-pyrazole-4-carbonyl)-5-(4-(dimethylcarbamoyl)piperidin-1-yl)-1,2,3,4-tetrahydroisoquinoline-1-carboxamido)benzoic acid, TFA salt]?
**A.** Ki [1, 3]: 41.1 nM; Ki [2, 4]: < 5 nM

**Q.** For `CN1CCN(c2cccc3c2CCN(C(=O)c2cnn(-c4cccc(Cl)c4F)c2N)C3C(=O)Nc2ccc(C(=O)O)cc2)CC1=O` (stereo not shown) [Example 318, 4-(2-(5-Amino-1-(3-chloro-2-fluorophenyl)-1H-pyrazole-4-carbonyl)-5-(4-methyl-3-oxopiperazin-1-yl)-1,2,3,4-tetrahydroisoquinoline-1-carboxamido)benzoic acid, TFA salt], which Ki [1, 3] is on record?
**A.** 21.1 nM

**Q.** What about the Ki [2, 4] of the same compound?
**A.** < 5 nM

**Q.** `CN1CCN(c2cccc3c2CCN(C(=O)c2cncc(-c4cccc(Cl)c4)c2)C3C(=O)Nc2ccc(C(=O)O)cc2)CC1` (stereo not shown) [Example 320, 4-(2-(5-(3-Chlorophenyl)nicotinoyl)-5-(4-methylpiperazin-1-yl)-1,2,3,4-tetrahydroisoquinoline-1-carboxamido)benzoic acid, 2 TFA salt] was tested. Which Ki [1, 3] did it give?
**A.** 124 nM

**Q.** What about the Ki [2, 4] of the same compound?
**A.** 158 nM

**Q.** For `CN1CCN(c2cccc3c2CCN(C(=O)c2cncc(-c4ccccc4)c2)C3C(=O)Nc2ccc(C(=O)O)cc2)CC1` (stereo not shown) [Example 321, 4-(5-(4-Methylpiperazin-1-yl)-2-(5-phenylnicotinoyl)-1,2,3,4-tetrahydroisoquinoline-1-carboxamido)benzoic acid], which Ki [1, 3] is on record?
**A.** 177 nM

**Q.** And the Ki [2, 4]?
**A.** 236 nM

**Q.** What does the source list for `COC1CCN(c2cccc3c2CCN(C(=O)c2cc(-c4cccc(Cl)c4F)ccn2)C3C(=O)Nc2ccc(C(=O)O)cc2)CC1` (stereo not shown) [Example 322, 4-(2-(4-(3-Chloro-2-fluorophenyl)picolinoyl)-5-(4-methoxypiperidin-1-yl)-1,2,3,4-tetrahydroisoquinoline-1-carboxamido)benzoic acid, 2 TFA salt]?
**A.** Ki [1, 3]: 138 nM; Ki [2, 4]: 8.21 nM

**Q.** What does the source list for `COC1CCN(c2cccc3c2CCN(C(=O)c2cncc(-c4cccc(Cl)c4F)c2)C3C(=O)Nc2ccc(C(=O)O)cc2)CC1` (stereo not shown) [Example 323, 4-(2-(5-(3-Chloro-2-fluorophenyl)nicotinoyl)-5-(4-methoxypiperidin-1-yl)-1,2,3,4-tetrahydroisoquinoline-1-carboxamido)benzoic acid, 2 TFA salt]?
**A.** Ki [1, 3]: 99.2 nM; Ki [2, 4]: 5.28 nM

**Q.** With `COC1CCN(c2cccc3c2CCN(C(=O)c2ccnc(-c4cccc(Cl)c4F)c2)C3C(=O)Nc2ccc(C(=O)O)cc2)CC1` (stereo not shown) [Example 324, 4-(2-(2-(3-Chloro-2-fluorophenyl)isonicotinoyl)-5-(4-methoxypiperidin-1-yl)-1,2,3,4-tetrahydroisoquinoline-1-carboxamido)benzoic acid, 2 TFA salt] as the compound, how does the Ki [1, 3] read?
**A.** 958 nM

**Q.** And the Ki [2, 4]?
**A.** 37.1 nM

**Q.** Which results are given for `COC1CCN(c2cccc3c2CCN(C(=O)c2cccc(-c4cccc(Cl)c4F)n2)C3C(=O)Nc2ccc(C(=O)O)cc2)CC1` (stereo not shown) [Example 325, 4-(2-(6-(3-Chloro-2-fluorophenyl)picolinoyl)-5-(4-methoxypiperidin-1-yl)-1,2,3,4-tetrahydroisoquinoline-1-carboxamido)benzoic acid, 2 TFA salt]?
**A.** Ki ([1]; measured at 37° C. (*)): > 6000 nM; Ki [2, 4]: 2400 nM

**Q.** What does the source list for `COC1CCN(c2cccc3c2CCN(C(=O)N2CCCC(c4cccc(Cl)c4F)C2)C3C(=O)Nc2ccc(C(=O)O)cc2)CC1` (stereo not shown) [Example 326, 4-(2-(3-(3-Chloro-2-fluorophenyl)piperidine-1-carbonyl)-5-(4-methoxypiperidin-1-yl)-1,2,3,4-tetrahydroisoquinoline-1-carboxamido)benzoic acid, TFA salt]?
**A.** Ki ([1]; measured at 37° C. (*)): > 2000 nM; Ki [2]: 330 nM
